Test results from US11484517B2, “Combination comprising a PPAR agonist such as elafibranor and an acetyl-CoA carboxylase (ACC) inhibitor” (GENFIT, priority 2017, dated 2022).

Legend:
CDFF-fed mice = experiment: mouse fibrosing-NASH model, CDFF diet (8 weeks); assay type: in vivo, C57Bl/6J mice
Description: The preventive effects of the combinations of elafibranor with selonsertib, GKT-831 or GS-0976 were assessed in mice fed a choline-deficient, […] diet (CDAA) supplemented with 2% cholesterol, 30% milk fat diet and high fructose corn syrup 55 (55% fructose/45% glucose for a final concentration of 42 g/L) in drinking water (Mells et al J Nutr Biochem 2015) (CDFF diet). 5-6 weeks old male C57Bl/6J mice were fed a control (CSAA) diet (n=4), CDFF (n=12), or CDFF supplemented with elafibranor (1 or 3 mg/kg/day), selonsertib (30 mg/kg/day), GKT-831 ([…]) alone or in combination (n=8 per group) for 8 weeks.
The body weight, the food and water intake were monitored twice per week. On the last day of treatment, plasma samples were obtained from retro-orbital blood sampling and mice were sacrificed after a 6 h-fasting period. The liver was rapidly excised for biochemical and histological analyses. […]
A technician blinded to the source of each liver specimen performed histological examinations. […] Briefly, steatosis, lobular inflammation and hepatocyte ballooning were scored. […]
(§1) Using Quant Center software (3D Histech, including Pattern Quant and Histo Quant modules), collagen-stained areas were quantified. […] The fibrosis area was then expressed as the percentage of the collagen surface to the whole tissue per animal.
(§2) The hepatic collagen content was determined using the appropriate QuickZyme kit (Total collagen assay, cat # QZB-totcol2). […]
(§3) Complete hydrolysis of tissue samples in 6M HCl at 95° C. is required before dosing the hydroxyproline. The assay results in the generation of a chromogen with a maximum absorbance at 570 nm. Results are expressed as mg of collagen/g of liver. […]
The plasmatic concentration of PIIINP was determined using an ELISA assay from Cloud-Clone Corp (cat # SEA573Mu), according to the manufacturer's instructions. […] The enzyme-substrate reaction is terminated by the addition of sulphuric acid solution and the color change is measured spectrophotometrically at a wavelength of 450 nm±10 nm. […]

TGFβ1-induced hHSC = experiment: α-SMA ELISA in TGFβ1-induced hHSC; assay type: cell-based, human
Description: (§4) The human primary hepatic stellate cells (hHSC) (Innoprot) were cultured under standard conditions, as described above.
The level of α-SMA was measured using a Sandwich ELISA. Briefly, the wells of an ELISA plate were first coated with the capture antibody (mouse monoclonal anti-ACTA2, Abnova) at 4° C. overnight. […] The cell lysates were transferred into the wells for binding to the capture antibody for a period of 2 h at room temperature. After the washing procedure, the detection antibody (biotinylated mouse monoclonal anti-ACTA2, Abnova) was added for 2 hours at room temperature followed by 3 washes. […] Upon oxidation, TMB forms a water-soluble blue reaction product that becomes yellow with addition of sulfuric acid (solution stop), enabling accurate measurement of the intensity at 450 nm using a spectrophotometer. The developed color is directly proportional to the amount of α-SMA present in the lysate.
as §4

[1] = tested on: rats fed a CDAA+1% cholesterol diet; experiment: chronic CDAA+1% cholesterol fibrosing NASH-model of rats (12 weeks); assay type: in vivo, Wistar rats; settings: liver; Percentage over the untreated CDAA + 1% cholesterol rats; GFT505 3 mg/kg/d, OCA 10 mg/kg/d
Description: Evaluation of Elafibranor, OCA and the combination Elafibranor+OCA in a chronic CDAA+1% cholesterol model (12 weeks).
The preventive effects of Elafibranor alone, OCA alone and the combination of both were assessed in a fibrosing NASH-model of rats fed a CDAA+1% cholesterol diet. 150-175 g male Wistar rats were fed a control (CSAA) diet, CDAA+1% cholesterol diet, or CDAA+1% cholesterol diet supplemented with Elafibranor 1, 3 and 10 mg/kg/day, OCA 10 and 30 mg/kg/day or combined drugs (Elafibranor 1, 3 and 10 mg/kg/day combined to OCA 10 mg/kg/day) for 12 weeks.
The body weight and the food intake were monitored twice per week. On the last day of treatment, rats were sacrificed after a 6 h fasting period. The liver was rapidly excised for biochemical and histological studies.
A technician blinded to the source of each liver specimen performed histological examinations. Virtual slides were generated using the Pannoramic 250 scanner from 3D Histech. […] Briefly, steatosis, lobular inflammation and hepatocytes ballooning were scored. […]
as §1, §2, §3
Quantitative PCR was then carried out using the CFX96 TOUCH Real-Time PCR Detection System (Biorad). […]
Expression levels were normalized using the expression of RPLP0 gene as a housekeeping gene of reference in samples. […] Expression levels were determined using the standard curve equation for both the housekeeping gene and the target gene (taking into account the specific PCR efficiency of each target gene).

Q: Cc1cc(F)c(C(=O)Nc2cccc(-c3nncn3C(C)C)n2)cc1-n1cnc(C2CC2)c1 [Selonsertib, selonsertib] was tested. Which “hepatic fibrosis (histology, hepatic collagen content, release of PIIINP and TIMP-1)” value (CDFF-fed mice; 8 weeks, elafibranor 3 mg/kg/day, selonsertib 30 mg/kg/day) did it give?
A: improved hepatic fibrosis

Q: Which results are given for CCCCOCCOc1ccc(-c2ccc3c(c2)/C=C(/C(=O)Nc2ccc([S@@+]([O-])Cc4cncn4CCC)cc2)CCCN3CC(C)C)cc1 [CVC, Cenicriviroc]?
A: α-SMA inhibition, single agent (TGFβ1-induced hHSC; 5 μM alone, TGFβ1-induced hHSC): does not show any antifibrotic activity; antifibrotic effect (α-SMA), single agent, in words (TGFβ1-induced hHSC; TGFβ1-activated hHSC, all doses): did not show a significant effect at all doses

Q: How did the “effect on liver fat and body weight” value (CDFF-fed mice; GS-0976 30 mg/kg/day alone) turn out when COc1ccccc1[C@H](Cn1c(=O)n(C(C)(C)C(=O)O)c(=O)c2c(C)c(-c3ncco3)sc21)OC1CCOCC1 [GS-0976] was run?
A: mild beneficial effect

Q: With CN(C)c1cccc(-c2c3c(=O)n(-c4ccccc4Cl)[nH]c3cc(=O)n2C)c1 [GKT-831, 2-(2-chlorophenyl)-4-[3-(dimethylamino)phenyl]-5-methyl-1H-pyrazolo[4,3-c]pyridine-3,6(2H,5H)-dione] as the compound, how does the “effect on NASH and fibrosis (inflammatory infiltrates, NAFLD activity score, fibrosis)” value (CDFF-fed mice; GKT-831 60 mg/kg/day, elafibranor 1 mg/kg/day) read?
A: no beneficial effect

Q: For CC[C@H]1[C@@H](O)[C@@H]2[C@H](CC[C@]3(C)[C@@H]([C@H](C)CCC(=O)O)CC[C@@H]23)[C@@]2(C)CC[C@@H](O)C[C@@H]12 [OCA, obeticholic acid], which “CCR5 mRNA level (marker of inflammation)” value [1] is on record?
A: 81% ± 28%

Q: What about the “TGFβ1 mRNA level” value [1] of the same compound?
A: 110% ± 23%

Q: What about the “TIMP1 mRNA level” value [1] of the same compound?
A: 110% ± 43%
